{
  "source": "patent US20190307749A1",
  "about": "“Mitochondria-Division Inhibitor 1 Protects Against Amyloid-B Induced Mitochondrial Fragmentation and Synaptic Damage in Alzheimer's Disease” (Texas Tech University System, priority 2018, published 2019)",
  "key": {"[1]": {"tested_on": "N2a cells", "test": "Cytochrome c oxidase activity", "type": "cell-based, mouse", "protocol": "(§1) Tissue culture: The N2a cells were grown for 3 days in a serum-free medium (1:1 mixture of DMEM and OptiMEM, plus penicillin and streptomycin [Invitrogen, Carlsbad, Calif., USA]) until the cells developed neuronal processes.\nCytochrome c oxidase activity: Cytochrome oxidase activity was measured in each of the 5 groups of N2a cells. Enzyme activity was assayed spectrophotometrically using a Sigma Kit (Sigma-Aldrich) following manufacturer's instructions. […] The decrease in absorbance at […] was recorded for 1-min reactions at 10-sec intervals. Cytochrome oxidase activity was measured according to the following formula: mU/mg total mitochondrial protein=(A/min sample−(A/min blank)×1.1 mg protein×21.84). The protein concentrations were determined following the BCA method."}, "[2]": {"tested_on": "GTPase Drp1", "settings": "by blocking the self-assembly of Drp1; reference [34]; cited from earlier work"}, "[3]": {"tested_on": "mouse neuroblastoma (N2a) cells", "test": "Immunoblotting analysis of mitochondrial dynamics, biogenesis and synaptic proteins", "type": "cell-based", "protocol": "as §1\n[…] of protein was resolved from each group of cells on a 4-12% Nu-PAGE gel (Invitrogen). The resolved proteins were transferred to […] (Novax Inc., San Diego, Calif., USA) and were then incubated for 1 hour at room temperature with a blocking buffer (5% dry milk dissolved in a TBST buffer). The PVDF membranes were incubated overnight with primary antibodies (see Table 2) and washed 3 times with a TBST buffer at 10-minute intervals. They were then incubated for 2 hours with appropriate secondary antibodies, followed by 3 additional washes at 10-minute intervals. Mitochondrial and synaptic proteins were detected with cheminilumniscence reagents (Pierce Biotechnology, Rockford, Ill., USA), and the bands from immunoblots were quantified on a Kodak scanner, following manufacturer's instructions (ID Image Analysis Software, Kodak Digital Science, Kennesaw, Ga., USA), and the gel images were analyzed from gel images captured with a Kodak digital science CD camera. The lanes were marked to define the positions and specific regions of the bands. An ID fine-band command was used to locate and to scan the bands in each lane and to record the readings."}, "[4]": {"tested_on": "N2a cells", "test": "Lipid peroxidation assay (4-hydroxy-2-nonenol, HNE-His ELISA)", "type": "cell-based, mouse", "protocol": "as §1\nLipid peroxidation assay: Lipid peroxidates are unstable indicators of oxidative stress in the brain. The final product of lipid peroxidation is 4-hydroxy-2-nonenol (HNE), which was measured in the N2a cell lysates prepared from cell pellets of control and treatment groups. The inventors used an HNE-His ELISA kit (Cell BioLabs, Inc., San Diego, Calif., USA), as described in Manczak and Reddy. Briefly, freshly prepared protein as added to a 96-well protein binding plate and incubated overnight at 4° C. The protein then washed 3 times with a buffer. After the last wash, the anti-HNE-His antibody was added to the protein in the wells, incubated for 2 hours at room temperature, and then washed again 3 times. The samples were then incubated with a secondary antibody conjugated with peroxidase for 2 hours at room temperature, followed by incubation with an enzyme substrate. Optical density was measured (at 450 nm) to quantify the level of HNE."}, "[5]": {"tested_on": "N2a cell mitochondria", "test": "Mitochondrial ATP levels (luciferase bioluminescence)", "type": "cell-based, mouse", "settings": "N2a cells", "protocol": "as §1\nATP levels: ATP levels were measured in N2a cell mitochondria from the treatment groups using an ATP determination kit (Molecular Probes). A bioluminescence assay was used, based on the reaction of ATP with recombinant firefly luciferase and its substract luciferin. Luciferase catalyzes the formation of light from ATP and luciferin. It is the emitted light that is linearly related to the concentration of ATP, which is measured with a luminometer. ATP levels were measured from mitochondrial pellets using a standard curve method."}, "[6]": {"tested_on": "mouse neuroblastoma (N2a) cells", "test": "Quantitative real-time RT-PCR: mRNA expression of mitochondrial dynamics, biogenesis and synaptic genes", "type": "cell-based", "settings": "vs Aβ42 treated cells"}, "[7]": {"tested_on": "N2a cells", "test": "Cell viability (MTT assay)", "type": "cell-based, mouse", "protocol": "as §1\nThe N2a cells from all 5 groups (4 treatment groups and 1 control group) were harvested, and their cell pellets were collected and used for quantitative real-time RT-PCR, immunoblotting analysis of mitochondrial and synaptic proteins, and mitochondrial functional assays for hydrogen peroxide production, lipid peroxidation, cytochrome c oxidase activity, and MTT determination. Isolated mitochondria from N2a cells from all 5 groups were used to determine mitochondrial ATP as described in Reddy et al.."}, "[8]": {"settings": "Aβ42 6 hrs then Mdivi1 24 hrs (Aβ42+Mdivi1), vs untreated N2a cells"}, "[9]": {"settings": "Mdivi1 24 hrs or Aβ42 20 μM 6 hrs alone, vs untreated N2a cells"}, "[10]": {"settings": "Mdivi1 24 hrs then Aβ42 6 hrs (Mdivi1+Aβ42), vs untreated N2a cells"}, "[11]": {"settings": "Aβ42 6 hrs then Mdivi1 24 hrs (Aβ42+Mdivi1), vs Aβ42 treated cells"}, "[12]": {"settings": "Mdivi1 24 hrs then Aβ42 6 hrs (Mdivi1+Aβ42), vs Aβ42 treated cells"}, "[13]": {"settings": "Aβ42 6 hrs then Mdivi1 24 hrs (Aβ42+Mdivi1)"}},
  "data": [
    {"smiles": "COc1cc(-n2c(S)nc3ccccc3c2=O)c(Cl)cc1Cl", "note": "[Mdivi1, 3-(2,4-Dichloro-5-methoxyphenyl)-2,3-dihydro-2-thioxo-4(1H)-quinazolinone]", "values": [
      {"measurement": "Cytochrome oxidase activity", "setting": "[1]; Aβ42 6 hrs then Mdivi1 24 hrs (Aβ42+Mdivi1), vs cells treated with Aβ42 alone", "result": "significantly increased"},
      {"measurement": "Cytochrome oxidase activity", "setting": "[1]; [8]", "result": "increased levels"},
      {"measurement": "Cytochrome oxidase activity", "setting": "[1]; [9]", "result": "increased levels"},
      {"measurement": "Cytochrome oxidase activity", "setting": "[1]; Mdivi1 24 hrs then Aβ42 6 hrs (Mdivi1+Aβ42), vs cells treated with Aβ42 alone", "result": "significantly increased"},
      {"measurement": "Cytochrome oxidase activity", "setting": "[1]; [10]", "result": "increased levels"},
      {"measurement": "GTPase Drp1 activity", "setting": "[2]", "result": "inhibits"},
      {"measurement": "Drp1 protein level", "setting": "[3]; [11]", "result": "significantly lower"},
      {"measurement": "Fis1 protein level", "setting": "[3]; [11]", "result": "significantly lower"},
      {"measurement": "Mfn1 protein level", "setting": "[3]; [11]", "result": "significantly higher"},
      {"measurement": "Mfn2 protein level", "setting": "[3]; [11]", "result": "significantly higher"},
      {"measurement": "Nrf1 protein level", "setting": "[3]; [11]", "result": "significantly higher"},
      {"measurement": "Opa1 protein level", "setting": "[3]; [11]", "result": "significantly higher"},
      {"measurement": "PGC1α protein level", "setting": "[3]; [11]", "result": "significantly higher"},
      {"measurement": "PSD95 protein level", "setting": "[3]; [11]", "result": "significantly higher"},
      {"measurement": "Synaptophysin protein level", "setting": "[3]; [11]", "result": "significantly higher"},
      {"measurement": "TFAM protein level", "setting": "[3]; [11]", "result": "significantly higher"},
      {"measurement": "Drp1 protein level", "setting": "[3]; [8]", "result": "Unchanged"},
      {"measurement": "Fis1 protein level", "setting": "[3]; [8]", "result": "Unchanged"},
      {"measurement": "Drp1 protein level", "setting": "[3]; [9]", "result": "significantly lower"},
      {"measurement": "Fis1 protein level", "setting": "[3]; [9]", "result": "significantly lower"},
      {"measurement": "Mfn1 protein level", "setting": "[3]; [9]", "result": "significantly higher"},
      {"measurement": "Mfn2 protein level", "setting": "[3]; [9]", "result": "significantly higher"},
      {"measurement": "Nrf2 protein level", "setting": "[3]; [9]", "result": "significantly higher"},
      {"measurement": "Opa1 protein level", "setting": "[3]; [9]", "result": "significantly higher"},
      {"measurement": "PGC1α protein level", "setting": "[3]; [9]", "result": "significantly higher"},
      {"measurement": "TFAM protein level", "setting": "[3]; [9]", "result": "significantly higher"},
      {"measurement": "Drp1 protein level", "setting": "[3]; [12]", "result": "significantly lower"},
      {"measurement": "Fis1 protein level", "setting": "[3]; [12]", "result": "significantly lower"},
      {"measurement": "Mfn1 protein level", "setting": "[3]; [12]", "result": "significantly higher"},
      {"measurement": "Mfn2 protein level", "setting": "[3]; [12]", "result": "significantly higher"},
      {"measurement": "Nrf1 protein level", "setting": "[3]; [12]", "result": "significantly higher"},
      {"measurement": "Nrf2 protein level", "setting": "[3]; [12]", "result": "significantly higher"},
      {"measurement": "Opa1 protein level", "setting": "[3]; [12]", "result": "significantly higher"},
      {"measurement": "PGC1α protein level", "setting": "[3]; [12]", "result": "significantly higher"},
      {"measurement": "PSD95 protein level", "setting": "[3]; [12]", "result": "significantly higher"},
      {"measurement": "Synaptophysin protein level", "setting": "[3]; [12]", "result": "significantly higher"},
      {"measurement": "TFAM protein level", "setting": "[3]; [12]", "result": "significantly higher"},
      {"measurement": "Drp1 protein level", "setting": "[3]; [10]", "result": "unchanged"},
      {"measurement": "Fis1 protein level", "setting": "[3]; [10]", "result": "unchanged"},
      {"measurement": "Lipid peroxidation levels (4-hydroxy-2-nonenol)", "setting": "[4]; Aβ42 6 hrs then Mdivi1 24 hrs (Aβ42+Mdivi1), vs N2a cells treated only with Aβ42", "result": "Significantly lower"},
      {"measurement": "Lipid peroxidation levels (4-hydroxy-2-nonenol)", "setting": "[4]; [9]", "result": "significantly lower"},
      {"measurement": "Lipid peroxidation levels (4-hydroxy-2-nonenol)", "setting": "[4]; Mdivi1 24 hrs then Aβ42 6 hrs (Mdivi1+Aβ42), vs N2a cells treated only with Aβ42", "result": "Significantly lower"},
      {"measurement": "Mitochondrial ATP levels", "setting": "[5]; Aβ42 6 hrs then Mdivi1 24 hrs (Aβ42+Mdivi1), vs Aβ42-treated N2a cells (FIG. 7B)", "result": "Significantly higher"},
      {"measurement": "Mitochondrial ATP levels", "setting": "[5]; [9]", "result": "Significantly increased"},
      {"measurement": "Mitochondrial ATP levels", "setting": "[5]; Mdivi1 24 hrs then Aβ42 6 hrs (Mdivi1+Aβ42), vs Aβ42-treated N2a cells (FIG. 7B)", "result": "Significantly higher"},
      {"measurement": "Nrf2 mRNA fold change", "setting": "[6]; [13]", "result": 2.0, "unit": "fold"},
      {"measurement": "PSD95 mRNA fold change", "setting": "[6]; [13]", "result": 8.6, "unit": "fold"},
      {"measurement": "TFAM mRNA fold change", "setting": "[6]; [13]", "result": 2.9, "unit": "fold"},
      {"measurement": "Mfn1 mRNA fold change", "setting": "[6]; Mdivi1 24 hrs then Aβ42 6 hrs (Mdivi1+Aβ42)", "result": 2.6, "unit": "fold"},
      {"measurement": "Cell viability", "setting": "[7]; Aβ42 6 hrs then Mdivi1 24 hrs (Aβ42+Mdivi1), vs N2a+Aβ42", "result": "higher"},
      {"measurement": "Cell viability", "setting": "[7]; [9]", "result": "significantly higher"},
      {"measurement": "Cell viability", "setting": "[7]; Mdivi1 24 hrs then Aβ42 6 hrs (Mdivi1+Aβ42), vs N2a+Aβ42", "result": "higher"}
    ]}
  ]
}
